From US11814623B2, “Methods of treating a wound using epigenetic regulation” (University of Massachusetts, priority 2018, dated 2023)

Legend:
[1] = test system: Notch1, PU.1 and Klf4 genes; assay: DNA methylation of Notch1, PU.1 and Klf4 by pyrosequencing; assay type: cell-based, mouse; conditions: db/db HSCs; FIG. 14A, FIG. 15, FIG. 16
Experimental: Genomic DNA was isolated by traditional phenol-chloroform extraction and isopropanol precipitation. DNA concentration was measured using a Nano Drop spectrophotometer. Around 500 ng genomic DNA were bisulfite converted by EZ DNA methylation-Gold kit following the manufacturer's instructions (Zymo Research). PCR amplification was performed using 2×HiFi Hotstart Uracil+ready mix PCR (Kapa Biosystems). PCR and pyrosequencing primer sets with one biotin-labeled primer were used to amplify the bisulfite converted DNA. Primers were designed using PyroMark Assay Design software version 2.0.1.15 (Qiagen). The size of the amplicons was 200 bp or less. Briefly, 5 μl master mix, […] of each primer, 20 ng genomic DNA and ultra-pure water to a final volume of 10 μl were mixed for each reaction and run at thermal cycling conditions: 95° C. for 3 min and then 50 cycles: 20 sec at 98° C.; 15 sec at the optimized primer-specific annealing temperature; 15 sec at 72° C. and a final extension for 1 min at 72° C. […] PyroGold reagents were used for the pyrosequencing reaction and the signal was analyzed using the PSQ 96MA system (Biotage, Uppsala, Sweden). Target CGs were evaluated by instrument software (PSQ96MA 2.1), which converts the pyrograms to numerical values for peak heights and calculates the methylation at each base as a C/T ratio.

[2] = test system: mouse Dnmt1 3′ UTR region; assay: Dnmt1 3' UTR luciferase reporter assay in HEK293T cells; assay type: cell-based; conditions: 48 h post-transfection, FIG. 8C
Experimental: (§1) HEK293T cells grown in 96-well plates were transfected with pmirGLO containing the Dnmt1 3′ UTR region that includes the let-7d-3p binding sites. The cells were co-transfected with let-7d-3p using Lipofectamine (Invitrogen). The Firefly and Renilla luciferase activities in the cell lysates were assayed with a Dual-Luciferase Reporter Assay System (Promega) at 48 h post-transfection. To generate the mutant variants, point mutations in the binding sites of let-7d-3p in the 3′-UTR region of Dnmt1 were introduced by PCR according to the site-directed mutagenesis protocol from Agilent. The two mutants that were generated are labeled “Dnmt1 M1” and “Dnmt1 M2”. The binding sequence of let-7d-3p in mouse Dnmt1 3′UTR is: […]

[3] = test system: Dnmt1 M1 and Dnmt1 M2 (mutated let-7d-3p binding sites in Dnmt1 3′ UTR); assay: Mutant Dnmt1 3' UTR luciferase reporter assay in HEK293T cells; assay type: cell-based, mouse; conditions: FIG. 8C
Experimental: as §1

[4] = test system: Dnmt1; assay: Dnmt1 expression in HSCs (qRT-PCR, Western blot); assay type: cell-based, mouse
Experimental: Quantification was performed using ImageJ software.
Total RNA was isolated using the mirVana miRNA isolation kit (Applied Biosystems). cDNA was synthesized using the QuantiMir RT Kit small RNA quantification system (SBI). qRT-PCR was performed as described previously. Mouse U6 was used as an endogenous control. The let-7d-3p mimic and inhibitor were purchased from Life Technologies (catalog numbers 4464066 and 4464084, respectively).

[5] = test system: H3K9me2 and H3K9me3 at Klf4, PU.1 and Notch1 promoters; assay: ChIP-PCR of H3K9 histone methylation at Notch1, PU.1 and Klf4; assay type: cell-based, mouse; conditions: db/db HSCs; FIG. 17B and FIG. 18
Experimental: 1×10^6 HSCs were sorted and cross-linked with 1% formaldehyde at room temperature for 10 min, and the reaction was stopped by adding Glycine to a final concentration of 0.125M and incubating at room temperature for 5 min. Cross-linked cells were lysed in lysis buffer and sonicated to 200-500 bp fragments (Bioruptor, Diagenode). The sonicated chromatin was centrifuged at 4° C. for 5 min. The cross-linked DNA was immunoprecipitated with H3K9me3, H3K9me2 or H3K9Ac antibodies (Millipore, USA) overnight at 4° C. with rotation, DNA-Antibody complexes were bound to ChIP beads, pulled down, washed and then eluted from the beads. Following reversal of cross-linkage, purified DNA was used for quantitative PCR using ChIP PCR primers purchased from IDT (MA, USA). Immunoprecipitation efficiency was calculated by normalizing sample CT values against control IgG values and calculating ratios of sample CT values relative to input values.

[6] = test system: HSCs from db/db mice; assay: Intracellular ROS (DCF) in HSCs of db/db mice given NAC; assay type: in vivo, mouse; conditions: NAC 150 mg/kg/day via drinking water for 8 weeks, FIG. 6A
Source text: 8-12 weeks old male C57BL/6J wild type (WT) and […] (db/db) mice were used in the studies. All mice were purchased from Jackson Laboratories and were maintained in mouse barrier facilities. Care and use of mice was in accordance with NIH guidelines and the Institutional Animal Care and Use Committee of the University of Massachusetts Medical School approved protocols. db/db and WT mice were fed standard chow diet (5.4 g/100 g diet, 0% cholesterol) and HFD mice were generated by feeding C57BL/6J mice a high fat diet (60% fat calories; Research Diet, New Brunswick, N.J.). N-acetylcysteine (NAC) was given for 8 weeks (150 mg/kg/day via drinking water. Whole bone marrow cells were flushed out from femurs and tibialis. Bone marrow cells were stained with antibodies for the identification of HSCs (c-Kit^+Scal^+lineage^-CD90.1^lo/-). The antibodies used were: c-Kit (1:50, eBioscience 12-1171, clone: 2B8), Sca-1 (1:50, eBioscience 11-5981, clone: D7), CD90.1 (1:50, eBioscience 45-0900, clone:[…]) and a lineage cocktail antibody (1:50, BD Bioscience 558074). As for the gating strategy for flow cytometry, we first gated on single, viable cells and eliminated any debris, dead cells and clumps or doublets. Next, gates were drawn on the c-Kitpositive/Scal-positive/lineage-negative/CD90.1^low-negative population for HSC sorting. […]

[7] = test system: Dnmt3a and DNMT3b; assay: Dnmt3a and Dnmt3b expression in db/db HSCs (qRT-PCR, Western blot); conditions: FIGS. 7E-F
[8] = test system: bone marrow monocytes of db/db mice; assay: CD115+CD11b+ monocyte concentration in bone marrow by flow cytometry; assay type: in vivo, mouse; conditions: NAC 150 mg/kg/day via drinking water for 8 weeks, FIG. 6C
Source text: 8-12 weeks old male C57BL/6J wild type (WT) and […] (db/db) mice were used in the studies. All mice were purchased from Jackson Laboratories and were maintained in mouse barrier facilities. Care and use of mice was in accordance with NIH guidelines and the Institutional Animal Care and Use Committee of the University of Massachusetts Medical School approved protocols. db/db and WT mice were fed standard chow diet (5.4 g/100 g diet, 0% cholesterol) and HFD mice were generated by feeding C57BL/6J mice a high fat diet (60% fat calories; Research Diet, New Brunswick, N.J.). N-acetylcysteine (NAC) was given for 8 weeks (150 mg/kg/day via drinking water.

Row | Compound | methylation of Notch1, PU.1, Klf4 [1] | luciferase activity, intact 3′ UTR construct [2] | luciferase activity, let-7d-3p binding sites in Dnmt1 3′ UTR mutated [3] | Dnmt1 expression in db/db HSCs ([4]; db/db HSCs transfected, FIGS. 8F-G) | histone methylation levels (H3K9me2, H3K9me3) [5] | oxidant stress in HSCs (DCF positive cells) [6] | expression of DNMT1 in db/db HSCs ([4]; db/db HSCs, compared with WT HSCs, FIGS. 7E-F) | mRNA or protein levels of Dnmt3a and DNMT3b [7] | monocyte concentration in bone marrow [8]
1 | let-7d-3p mimic: let-7d-3p mimic purchased from Life Technologies (catalog number 4464066); microRNA that binds the Dnmt1 3′ UTR (guide CUAUACGACCUGCUGCCUUUCU; chemistry not given here) | decreased | significantly repressed | didn't affect | decreased | decreased | – | – | – | –
2 | CC(=O)N[C@@H](CS)C(=O)O [N-acetylcysteine] | – | – | – | – | – | reversed | restored | did not change | restored
